According to publication PMC2362735, “New semisynthetic vinca alkaloids: chemical, biochemical and cellular studies” (British Journal of Cancer, 1999):

Tested on: Mouse Ehrlich ascites tumour cells
Assay: In vivo anti-tumour effect on Ehrlich ascites carcinoma, single i.p. dose 4 days after transplantation
Description: The numerous antimitotic drugs already developed and therapeu- tically used for a large number of pathologies belong to different classes based on their chemical structure and other distinctive features. Antimitotic drugs usually target the tubulin/microtubule network of the cytoskeleton that is formed by assembly of cyto- plasmic tubulin dimers. The stability of the different microtubular structures varies considerably; some of their functions depend on their lability. The lability is augmented by the extreme sensitivity to various drugs. Several synthetic and natural compounds interact specifically with tubulin and/or microtubule, fundamentally destroying its dynamic character and leading to cell death. […] Because of their extensive clinical use, it is important to synthesize additional agents having at least the same biological activity. […] Nevertheless, it is unclear yet how the anti-calmodulin activity of these drugs is related to their desired and undesired pharmacological effects. […] The synthesis of the KAR derivatives are presented. […] Taxol, GTP and trifluoperazine were purchased from Sigma. All organic reagents for synthesis of the new compounds were obtained from Aldrich and were of the highest grade. All other chemicals were reagent grade commercial preparations. […] Tubulin was stored in 1 M sucrose, 10 mM sodium phosphate buffer, 0.5 mM magnesium chloride and 0.1 mM GTP, pH 7.0, at -80C and dialysed against the appropriate buffer before use. […] PFK, aldolase and glycerol-3-phosphate dehydrogenase- triosephosphate isomerase purified from rabbit skeletal muscle were purchased in ammonium sulphate suspensions from Sigma or Boehringer. The enzyme suspensions were centrifuged at 10 000g for 5 min. The pellets were suspended in the appropriate buffer, then the enzymes were gel filtered or dialysed in the same buffer to remove ammonium sulphate. […] (Figure 1B; R1 , CH3; R2 , CH2 CH2 Cl). […] After 2 h incubation at room temperature, 200 ml dried toluene was added to the reaction mixture. […] The mixture was stirred for 30 min. After separation of the organic phase, it was washed with water (3 x 30 ml) and dried with potassium sulphate and evaporated on a water bath of 35-40C at 20-27 hPa. The resulting material was chromatographed on silica gel (500 g, bead size of 0.040- 0.063 mm) column (30 mm x 500 mm) using ethyl acetate/ethanol (9:1) mixture as eluent. […] The mixture was kept for 4 h at room temperature and then evaporated on a water bath at 40C under a vacuum of 80 hPa to a final volume of 5-6 ml. […] (Figure 1B, R1 , CHO; R2 , CH2 CH2 Cl). […] Synthesis of KAR-4 [3-allyl-2,4-dioxo-3,5-spiro-oxazolidino- 4-deacetoxy-vinblastine] (Figure 1B; R1 , CH3; R2 , CH2 CH=CH2 ). […] NMR measurements were carried out on a Varian Unity plus-500 instrument (500 MHz for 1H and 125 MHz for 13C) in DMSO. Chemical shifts were determined relative to dTMS = 0.00 p.p.m. 1H and 13C signal assignments were verified by a concerted use of two-dimensional 1H-1H and 1H-13C shift correlation methods (DQFCOSY, HSQC, HMBC) and NOESY experiments. The gradient-enhanced DQFCOSY, HSQC, HMBC and NOESY experiments were recorded by using the standard spectrometer software package. A mixing time of tmix = 0.5 s was used for the NOESY experiments.

[1] = Table 2A, 40 mg kg-1 single dose i.p.
[2] = Table 2B, 20 mg kg-1 single dose i.p.
[3] = Table 2B, 40 mg kg-1 single dose i.p.
[4] = Table 2B, 60 mg kg-1 single dose i.p.
[5] = Table 2B, 80 mg kg-1 single dose i.p.

CC[C@]1(O)C[C@@H]2CN(CCc3c([nH]c4ccccc34)[C@@](C(=O)OC)(c3cc4c(cc3OC)N(C)[C@@H]3[C@]45CCN4CC=C[C@@](CC)(C[C@@]36OC(=O)N(CCCl)C6=O)[C@H]45)C2)C1 [KAR-2, 3′-(β-chloroethyl)-2′,4′-dioxo-3,5′-spiro-oxazolidino-4-deacetoxy-vinblastine]
mortality of treated animals (80 mg kg-1 single dose i.p., three mice per group): The animals were dying in the same day of the sacrifice
Cells ml-1 (per cent of control) [1]: 56 per cent of control
Total cells (per cent of control) [1]: 24 per cent of control
Volume of tumour per mouse (Table 2A, 40 mg kg-1 single dose i.p., sacrifice 8 days after implantation, control 5.33 ml): 2.33 mL
Cells ml-1 (per cent of control) [2]: 63 per cent of control
Total cells (per cent of control) [2]: 46 per cent of control
Volume of tumour per mouse (Table 2B, 20 mg kg-1 single dose i.p., control 2.67 ml): 1.97 mL
Cells ml-1 (per cent of control) [3]: 60 per cent of control
Total cells (per cent of control) [3]: 24 per cent of control
Volume of tumour per mouse (Table 2B, 40 mg kg-1 single dose i.p., control 2.67 ml): 1.17 mL
Cells ml-1 (per cent of control) [4]: 46 per cent of control
Total cells (per cent of control) [4]: 29 per cent of control
Volume of tumour per mouse (Table 2B, 60 mg kg-1 single dose i.p., control 2.67 ml): 1.70 mL
Cells ml-1 (per cent of control) [5]: 211 per cent of control
Total cells (per cent of control) [5]: 36 per cent of control
Volume of tumour per mouse (Table 2B, 80 mg kg-1 single dose i.p., control 2.67 ml): 0.45 mL
